Test results reported in patent US10760050B2, “Method for producing retinal pigment epithelial cells” (SUMITOMO CHEMICAL COMPANY, LIMITED, priority 2013, dated 2020).

System: Human ES cells (KhES-1-derived)
Assay: Adhesion culture of cells dispersed from human ES cell-derived aggregates with added factors; level of epithelial formation observed under a microscope (Example 5)
Assay type: cell-based
Settings: observed at day 40, compared to the control free of the addition
Description: Human ES cells (KhES-1-derived) were cultured according to the methods described in “Ueno, M. et al. PNAS 2006, 103(25), 9554-9559” and “Watanabe, K. et al. Nat Biotech 2007, 25, 681-686”. As the medium, a medium obtained by adding 20% KSR KNOCKOUT™ Serum Replacement; Invitrogen), 0.1 mM 2-mercaptoethanol, 2 mM L-glutamine, 1× non-essential amino acid, 5 ng/ml bFGF to DMEM/F12 medium (Sigma) was used. The cultured ES cells were dispersed into single cells using TrypLE Express (Invitrogen), and the above-mentioned cultured ES cells were suspended in 100 μl of a serum-free medium at 1.2×10^4 cells per one well of a non-cell adhesive 96 well culture plate (sumilon spheroid plates, SUMITOMO BAKELITE Co., Ltd.) to allow for rapid formation of aggregates and subjected to culture at 37° C., 5% CO2. As the serum-free medium therefor, a serum-free medium obtained by adding 10% KSR, 450 μM 1-monothioglycerol, 1× Chemically defined lipid concentrate, 20 μM Y27632 to a 1:1 mixture of F-12 medium and IMDM medium was used. At day 3 from the start of the floating culture, BMP4 was added al a concentration 1.5 nM, and floating culture was continued. A half amount of the culture medium in the well was exchanged every 3 days with the above-mentioned medium not supplemented with a substance acting on the BMP signal transduction pathway. […]

Row | Molecule | level of epithelial formation (pigmentation of retinal pigment epithelial cells) (3 μM added at day 24 from the start of the floating culture, FIG. 5B) | level of epithelial formation (uniformity of epithelium) (1 nM added at day 24, FIG. 5E)
1 | Cc1c[nH]c(-c2cnc(NCCNc3ccc(C#N)cn3)nc2-c2ccc(Cl)cc2Cl)n1 [CHIR99021] | differentiated into darker retinal pigment epithelial cells | –
2 | recombinant human BMP4 protein: BMP protein, a substance acting on the BMP signal transduction pathway (protein, UniProt P12644 293-408, looked up) Bone morphogenetic protein 4: SPKHHSQRARKKNKNCRRHSLYVDFSDVGWNDWIVAPPGYQAFYCHGDCPFPLADHLNSTNHAIVQTLVNSVNSSIPKACCVPTELSAISMLYLDEYDKVVLKNYQEMVVEGCGCR | – | more uniform epithelium
